Source: patent US8664399B2, “Substituted heterocyclic compounds as ion channel modulators” (Gilead Sciences, Inc., priority 2008, dated 2014)
Each block holds one compound with its values, some of them ahead of it.

Columns and labels:
Format in all cases: cell-based
[1] = molecular target: T1, human cardiac sodium channel, hNav1.5 (Homo sapiens, UniProt Q14524); test: Late INa screening assay (automated whole cell patch clamp, PatchXpress; late current generated with 10 μM Tefluthrin); conditions: HEK293 cells expressing hNav1.5; for inhibition at 10 µM: 10 μM test compound, read-out: Late Ina % blk (10 μM test cmpd)
T1 construct: host or cells: HEK293
T1 sequence (Q14524 whole entry): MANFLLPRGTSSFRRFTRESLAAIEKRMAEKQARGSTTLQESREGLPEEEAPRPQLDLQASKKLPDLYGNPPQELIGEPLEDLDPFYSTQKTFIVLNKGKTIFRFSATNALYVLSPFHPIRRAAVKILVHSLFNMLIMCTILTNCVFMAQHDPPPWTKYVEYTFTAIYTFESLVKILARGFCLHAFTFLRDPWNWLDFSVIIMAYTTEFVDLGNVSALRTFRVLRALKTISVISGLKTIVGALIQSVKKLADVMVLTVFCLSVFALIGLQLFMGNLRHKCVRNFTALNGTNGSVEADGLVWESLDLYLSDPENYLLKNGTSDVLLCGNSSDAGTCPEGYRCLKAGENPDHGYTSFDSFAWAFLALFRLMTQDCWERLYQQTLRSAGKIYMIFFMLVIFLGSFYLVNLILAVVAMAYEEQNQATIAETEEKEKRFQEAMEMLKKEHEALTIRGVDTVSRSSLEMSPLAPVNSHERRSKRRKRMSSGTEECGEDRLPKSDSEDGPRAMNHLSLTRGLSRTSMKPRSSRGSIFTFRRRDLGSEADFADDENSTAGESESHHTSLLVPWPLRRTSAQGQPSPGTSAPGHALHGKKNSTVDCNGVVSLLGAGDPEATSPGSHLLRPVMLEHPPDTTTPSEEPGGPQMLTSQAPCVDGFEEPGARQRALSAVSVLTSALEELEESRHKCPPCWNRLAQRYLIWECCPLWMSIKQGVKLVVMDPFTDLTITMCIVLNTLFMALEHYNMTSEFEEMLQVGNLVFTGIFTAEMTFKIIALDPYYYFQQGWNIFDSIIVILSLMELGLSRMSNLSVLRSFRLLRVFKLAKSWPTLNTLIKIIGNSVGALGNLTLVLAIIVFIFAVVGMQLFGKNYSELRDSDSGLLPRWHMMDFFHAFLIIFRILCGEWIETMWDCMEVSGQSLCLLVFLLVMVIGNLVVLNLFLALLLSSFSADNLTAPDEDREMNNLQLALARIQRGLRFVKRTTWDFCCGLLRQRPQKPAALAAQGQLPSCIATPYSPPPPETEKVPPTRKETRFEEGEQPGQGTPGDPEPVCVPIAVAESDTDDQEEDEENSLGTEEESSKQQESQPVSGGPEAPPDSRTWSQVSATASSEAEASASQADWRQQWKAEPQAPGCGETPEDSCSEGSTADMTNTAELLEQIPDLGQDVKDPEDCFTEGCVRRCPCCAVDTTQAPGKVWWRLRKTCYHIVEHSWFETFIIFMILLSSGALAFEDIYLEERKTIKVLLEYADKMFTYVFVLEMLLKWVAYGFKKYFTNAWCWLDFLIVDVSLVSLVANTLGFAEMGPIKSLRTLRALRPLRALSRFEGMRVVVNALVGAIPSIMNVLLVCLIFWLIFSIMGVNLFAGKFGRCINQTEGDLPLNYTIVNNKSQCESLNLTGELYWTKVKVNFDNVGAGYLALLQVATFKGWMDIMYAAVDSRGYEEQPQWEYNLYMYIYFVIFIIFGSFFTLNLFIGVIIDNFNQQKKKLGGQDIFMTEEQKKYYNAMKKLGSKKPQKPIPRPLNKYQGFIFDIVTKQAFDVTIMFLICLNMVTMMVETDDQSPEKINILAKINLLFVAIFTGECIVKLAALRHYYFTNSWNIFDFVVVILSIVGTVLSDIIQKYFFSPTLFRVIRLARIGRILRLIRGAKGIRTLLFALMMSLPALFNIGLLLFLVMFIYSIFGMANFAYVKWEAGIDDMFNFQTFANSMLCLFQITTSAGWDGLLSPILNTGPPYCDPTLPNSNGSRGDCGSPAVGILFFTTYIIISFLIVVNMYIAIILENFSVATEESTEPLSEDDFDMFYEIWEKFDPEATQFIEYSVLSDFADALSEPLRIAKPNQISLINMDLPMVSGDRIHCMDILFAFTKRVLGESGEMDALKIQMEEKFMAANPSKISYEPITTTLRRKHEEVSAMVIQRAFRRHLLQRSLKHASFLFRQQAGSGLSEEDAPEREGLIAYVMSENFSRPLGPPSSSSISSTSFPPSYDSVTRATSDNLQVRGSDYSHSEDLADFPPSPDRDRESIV
Procedure: The late sodium current (Late INa) and peak sodium current (Peak INa) assays were performed on an automated electrophysiology platform, PatchXpress 7000A (MDS Analytical Technologies, Sunnyvale, Calif.), which uses the whole cell patch clamp technique to measure currents through the cell membrane of up to 16 cells at a time. The assay uses an HEK293 (human embryonic kidney) cell line heterologously expressing the wild-type human cardiac sodium channel, hNav1.5, purchased from Millipore (Billerica, Mass.). No beta subunits were coexpressed with the Na channel alpha subunit. Cells were maintained with standard tissue culture procedures and stable channel expression was maintained with 400 μg/ml Geneticin in the culture medium. Cells isolated for use on PatchXpress were incubated for 5 minutes in Versene 1X and then for 2 minutes in 0.0125% Trypsin-EDTA (both at 37° C.) to ensure that 80-90% of the cells are single and not part of a cell cluster. Experiments were carried out at 24-27° C.
For both the Late INa and Peak INa assays, series resistance compensation was set to 50% and whole-cell compensation is performed automatically. Currents were low-pass filtered at 10 kHz and digitized at 31.25 kHz. Currents through open sodium channels were automatically recorded and stored in the DataXpress2 database (MDS Analytical Technologies, Sunnyvale, Calif.). Analysis is performed using DataXpress2 analysis software and data are compiled in Excel.
Compound stocks were routinely made in glass vials to 10 mM in dimethyl sulfoxide (DMSO). In some cases, when compounds were not soluble in DMSO, they were made in 100% ethanol. Stocks were sonicated as necessary. The extracellular solution for screening Late INa was composed of: 140 mM NaCl, 4 mM KCl, 1.8 mM CaCl2, 0.75 mM MgCl2, and 5 mM HEPES with pH adjusted to 7.4 using NaOH. The extracellular solution for screening Peak INa was composed of: 20 mM NaCl, 120 mM N-methyl-D glucamine, 4 mM KCl, 1.8 mM CaCl2, 0.75 mM MgCl2, and 5 mM HEPES with pH adjusted to 7.4 using HCl. The intracellular solution used to perfuse the inside of the cells for both the Late INa and Peak INa assays contained: 120 mM CsF, 20 mM CsCl, 5 mM EGTA, 5 mM HEPES and pH adjusted to 7.4 with CsOH. […] The 0Na extracellular solution used at the end of each experiment for the Late INa and Peak INa assays to measure baseline current contained: 140 mM N-methyl-D-glucamine; 4 mM KCl; 1.8 mM CaCl2; 0.75 mM MgCl2; 5 mM HEPES and pH was adjusted to 7.4 with HCl.
For the Late INa assay, sodium channels were activated every 10 seconds (0.1 Hz) by depolarizing the cell membrane to −20 mV for 250 milliseconds (ms) from a holding potential of −120 mV. In response to a −20 mV voltage step, typical Nav1.5 sodium currents activate rapidly to a peak negative current and then inactivate nearly completely within 3-4 ms.
All compounds were tested to determine their activity in blocking the late sodium current. Late INa current was generated by adding 10 μM Tefluthrin (pyrethroid) to the extracellular solution while recording Na currents.

hERG potassium channel = molecular target: T2, hERG potassium channel (Homo sapiens, UniProt Q12809); test: hERG screening assay (PatchXpress automated patch clamp, CHO cell line); conditions: CHO cells; for hERG Patch Clamp hERG % blk (1 μm test cmpd): 1 μm test compound; for hERG Patch Clamp hERG % blk (10 μm test cmpd): 10 μm test compound
T2 construct: expressed in transfected cells; host or cells: CHO (Chinese Hamster Ovary)
T2 sequence (Q12809 whole entry): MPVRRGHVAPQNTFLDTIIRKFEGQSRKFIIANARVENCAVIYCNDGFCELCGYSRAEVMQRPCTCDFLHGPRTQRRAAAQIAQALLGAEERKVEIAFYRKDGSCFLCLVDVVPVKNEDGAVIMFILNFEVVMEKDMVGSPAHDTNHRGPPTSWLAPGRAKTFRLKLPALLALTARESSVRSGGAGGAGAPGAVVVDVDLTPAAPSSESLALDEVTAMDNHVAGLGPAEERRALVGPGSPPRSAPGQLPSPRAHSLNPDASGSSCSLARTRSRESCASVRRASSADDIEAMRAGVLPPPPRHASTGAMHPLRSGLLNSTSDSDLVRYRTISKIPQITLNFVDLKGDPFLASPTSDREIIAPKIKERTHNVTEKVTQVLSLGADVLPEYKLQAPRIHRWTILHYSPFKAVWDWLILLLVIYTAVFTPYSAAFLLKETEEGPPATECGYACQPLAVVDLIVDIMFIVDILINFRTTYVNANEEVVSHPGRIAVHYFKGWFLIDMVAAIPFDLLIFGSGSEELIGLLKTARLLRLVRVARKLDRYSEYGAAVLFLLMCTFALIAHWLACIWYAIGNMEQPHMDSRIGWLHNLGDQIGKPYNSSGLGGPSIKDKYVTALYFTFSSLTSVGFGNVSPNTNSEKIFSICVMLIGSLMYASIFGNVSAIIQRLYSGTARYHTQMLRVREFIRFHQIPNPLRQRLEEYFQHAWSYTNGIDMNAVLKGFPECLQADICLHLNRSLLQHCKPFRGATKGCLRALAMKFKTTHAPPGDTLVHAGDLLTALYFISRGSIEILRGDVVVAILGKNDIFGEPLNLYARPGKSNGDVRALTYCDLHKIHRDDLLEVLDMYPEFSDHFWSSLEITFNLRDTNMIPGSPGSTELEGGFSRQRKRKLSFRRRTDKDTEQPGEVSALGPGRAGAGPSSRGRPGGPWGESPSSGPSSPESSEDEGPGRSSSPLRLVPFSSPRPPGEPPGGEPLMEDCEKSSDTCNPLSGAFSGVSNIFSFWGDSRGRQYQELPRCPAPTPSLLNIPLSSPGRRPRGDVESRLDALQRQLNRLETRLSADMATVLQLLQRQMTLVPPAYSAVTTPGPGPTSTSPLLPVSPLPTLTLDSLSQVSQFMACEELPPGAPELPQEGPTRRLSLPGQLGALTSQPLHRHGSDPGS
Procedure: Compounds were screened to test their activity in blocking the hERG potassium channel. The hERG channel is heterologously expressed in a CHO (Chinese Hamster Ovary) cell line. Cells were maintained with standard tissue culture procedures and stable channel expression is maintained with 500 μg/ml G418 in the culture medium. Cells were harvested for testing on the PatchXpress automated patch clamp with Accumax (Innovative Cell Technologies, San Diego, Calif.) to isolate single cells.
The following solutions were used for electrophysiological recordings. The external solution contains: 2 mM CaCl2; 2 mM MgCl2; 4 mM KCl; 150 mM NaCl; 10 mM Glucose; 10 mM HEPES (pH 7.4 with 1M NaOH, osmolarity). The internal solution contained: 140 mM KCl, 10 mM MgCl2, 6 mM EGTA, 5 mM HEPES, 5 mM ATP (pH adjusted to 7.25 with KOH).
hERG channels are activated when the voltage is stepped to +20 mV from the −80 mV holding potential. During a 5 second step at +20 mV, the channels activate and then largely inactivate, so the currents are relatively small. Upon returning to −50 mV from +20 mV, hERG currents transiently become much larger as inactivation is rapidly removed and then the channel closes. The first step to −50 mV for 300 ms is used as a baseline for measuring the peak amplitude during the step to −50 mV after channel activation. The peak current at −50 mV was measured both under control conditions and after addition of compound.
All compounds were prepared as 10 mM DMSO stocks in glass vials. Stock solutions were mixed by vigorous vortexing and sonication for about 2 minutes at room temperature. For testing, compounds were diluted in glass vials using an intermediate dilution step in pure DMSO and then further diluted to working concentrations in external solution. Dilutions were prepared no longer than 20 minutes before use.
After achieving the whole-cell configuration, cells were monitored for 90 seconds to assess stability and washed with external solution for 66 seconds. The voltage protocol described above was then applied to the cells every 12 seconds and throughout the whole procedure. Only cells with stable recording parameters and meeting specified health criteria were allowed to enter the compound addition procedure.
External solution containing 0.1% DMSO (vehicle) was applied to the cells first to establish the control peak current amplitude. After allowing the current to stabilize for 3 to 5 minutes, 1 μM and then 10 μM test compounds was applied. Each compound concentration was added 4 times and cells were kept in test solution until the effect of the compound reaches steady state or for a maximum of 12 minutes. After addition of test compound, a positive control (1 μM Cisapride) was added and must block >95% of the current for the experiment to be considered valid. Washout in the external solution compartment was performed until the recovery of the current reaches steady state. Data were analyzed using DataXpress, Clampfit (Molecular Devices, Inc., Sunnyvale) and Origin 7 (Originlab Corp.)

[2] = molecular target: T3, human Nav1.7 (hNav1.7+β1 subunits) channels expressed in HEK293 cells (Homo sapiens, UniProt Q15858); test: Nav1.7 screening assay (fluorescent dye-based membrane potential assay, veratridine); conditions: veratridine 50 μmol/L, read-out: IC50 for reduction of Nav1.7 Na+ current
T3 construct: expressed in transfected cells; host or cells: HEK293

- IC50 [2]: 0.2 µM
SMILES: Cc1nc2ccc(Cl)cc2c(-c2ccccc2)c1-c1nnc(Cc2ccc(Cl)cc2)o1 [PT-005, 6-chloro-3-[5-(4-chlorobenzyl)-1,3,4-oxadiazol-2-yl]-2-methyl-4-phenylquinoline]
- inhibition at 10 µM [1]: 43.6%
- hERG Patch Clamp hERG % blk (1 μm test cmpd) (hERG potassium channel): 10.5%
- hERG Patch Clamp hERG % blk (10 μm test cmpd) (hERG potassium channel): 32.5%

SMILES: CCOC(=O)c1c(Cn2cnnn2)nc2ccc(Cl)cc2c1-c1ccccc1 [PT-010, ethyl 6-chloro-4-phenyl-2-(1H-tetrazol-1-ylmethyl)quinoline-3-carboxylate]
- inhibition at 10 µM [1]: 41.6%
- hERG Patch Clamp hERG % blk (1 μm test cmpd) (hERG potassium channel): 18.5%
- hERG Patch Clamp hERG % blk (10 μm test cmpd) (hERG potassium channel): 66.0%

SMILES: CCOC(=O)c1c(Cn2ccnc2)nc2ccc(Cl)cc2c1-c1ccccc1 [PT-008, ethyl 6-chloro-2-(1H-imidazol-1-ylmethyl)-4-phenylquinoline-3-carboxylate]
- inhibition at 10 µM [1]: 41.1%
- hERG Patch Clamp hERG % blk (1 μm test cmpd) (hERG potassium channel): 43.0%
- hERG Patch Clamp hERG % blk (10 μm test cmpd) (hERG potassium channel): 94.5%

SMILES: Cc1nc2ccc(Cl)cc2c(-c2ccccc2)c1C(=O)OC(c1ccccc1)C1CC1 (centres unmarked) [PT-012, cyclopropyl(phenyl)methyl 6-chloro-2-methyl-4-phenylquinoline-3-carboxylate]
- inhibition at 10 µM [1]: 20.5%
- hERG Patch Clamp hERG % blk (1 μm test cmpd) (hERG potassium channel): 10.5%
- hERG Patch Clamp hERG % blk (10 μm test cmpd) (hERG potassium channel): 13.5%

SMILES: CCOC(=O)c1c(CN2C(=O)CCC2=O)nc2ccc(Cl)cc2c1-c1ccccc1 [PT-009, ethyl 6-chloro-2-[(2,5-dioxopyrrolidin-1-yl)methyl]-4-phenylquinoline-3-carboxylate]
- inhibition at 10 µM [1]: 53.3%
- hERG Patch Clamp hERG % blk (1 μm test cmpd) (hERG potassium channel): 24.0%
- hERG Patch Clamp hERG % blk (10 μm test cmpd) (hERG potassium channel): 65.5%

- IC50 [2]: 37.5 µM
SMILES: Cc1nc2ccc(Cl)cc2c(-c2ccccc2)c1C(=O)OCC1CC1 [PT-016, cyclopropylmethyl 6-chloro-2-methyl-4-phenylquinoline-3-carboxylate]
- inhibition at 10 µM [1]: 59%
- hERG Patch Clamp hERG % blk (1 μm test cmpd) (hERG potassium channel): 30.5%
- hERG Patch Clamp hERG % blk (10 μm test cmpd) (hERG potassium channel): 73.0%

SMILES: Cc1nc2ccc(Cl)cc2c(-c2ccccc2)c1C(=O)O[C@@H](C)c1ccccc1 [PT-014, (1S)-1-phenylethyl 6-chloro-2-methyl-4-phenylquinoline-3-carboxylate]
- inhibition at 10 µM [1]: 36.1%

SMILES: CCOC(=O)c1c(CN(C)C)nc2ccc(Cl)cc2c1-c1ccccc1 [PT-024, ethyl 6-chloro-2-[(dimethylamino)methyl]-4-phenylquinoline-3-carboxylate]
- inhibition at 10 µM [1]: 57.8%

SMILES: Cc1nc2ccccc2c(C)c1C(=O)OCc1ccc(Cl)cc1 [PT-019, 4-chlorobenzyl 2,4-dimethylquinoline-3-carboxylate]
- Late Ina % blk (1 μM test cmpd) ([1]; 1 μM test compound): 22.5%
- inhibition at 10 µM [1]: 70.1%
- hERG Patch Clamp hERG % blk (1 μm test cmpd) (hERG potassium channel): 10.0%
- hERG Patch Clamp hERG % blk (10 μm test cmpd) (hERG potassium channel): 62.5%

SMILES: Cc1nc2ccc(Cl)cc2c(-c2ccccc2)c1C(=O)N1CCC(c2ccc(C(N)=O)cc2)CC1 [PT-017, 4-{1-[(6-chloro-2-methyl-4-phenylquinolin-3-yl)carbonyl]piperidin-4-yl}benzamide]
- inhibition at 10 µM [1]: 29.4%
- hERG Patch Clamp hERG % blk (1 μm test cmpd) (hERG potassium channel): 28.5%
- hERG Patch Clamp hERG % blk (10 μm test cmpd) (hERG potassium channel): 51.0%

SMILES: Cc1nc2ccc(Cl)cc2c(-c2ccccc2F)c1C(=O)OC(C)(C)C [PT-022, Tert-butyl 6-chloro-4-(2-fluorophenyl)-2-methylquinoline-3-carboxylate]
- inhibition at 10 µM [1]: 46.9%

SMILES: CCOC(=O)c1c(C)nc2ccc(Cl)cc2c1-c1ccccc1F [PT-030, ethyl 6-chloro-4-(2-fluorophenyl)-2-methylquinoline-3-carboxylate]
- inhibition at 10 µM [1]: 55.4%

SMILES: Cc1nc2ccc(Cl)cc2c(-c2ccccc2)c1C(=O)NCc1ccc(F)cc1 [PT-003, 6-chloro-N-(4-fluorobenzyl)-2-methyl-4-phenylquinoline-3-carboxamide]
- inhibition at 10 µM [1]: 26.3%
